{"source": "patent US20240035023A1", "about": "“COMPUTER IMPLEMENTED METHOD FOR E[…] FOR SYNTHESIS OF FL[…]” (Kcat Enzymatic Private Limited, priority 2022, published 2024)", "origin": "cited, not measured here", "biological_target": "fluorinase (Streptantibioticus cattleyicolor, UniProt Q70GK9)"}
{"smiles": "Nc1ncnc2c1ncn2[C@@H]1O[C@H](CSCC[C@H](N)C(=O)O)[C@@H](O)[C@H]1O", "note": "[S-adenosyl-homocysteine]", "values": [{"measurement": "enzyme activity against the substrate", "value": "no activity"}]}
